Drawing on ChEMBL document CHEMBL1141637, “Synthesis and anti-inflammation evaluation of new C60 fulleropyrrolidines bearing biologically active xanthine” (2008), this text covers Activity for 1 molecule.

Experiment [1] deals with J774.A1. As to the kind of experiment: Reduction of LPS-induced TNFalpha production in mouse J774A.1 cells at 10 uM after 3 hrs by ELISA relative to control. Type of experiment: functional. Further details: scale not given: the % may be the effect or the level left. For orientation: An ELISA detects its analyte on a solid surface through an enzyme-linked reagent.
Experiment [2] has as its system J774.A1. As to the kind of experiment: Reduction of LPS-induced nitric oxide production in mouse J774A.1 cells at 10 uM after 3 hrs relative to control. Type of experiment: functional. Also noted: scale not given: the % may be the effect or the level left.

Regarding `CC(=O)CCCCn1c(=O)c2c(ncn2C)n(C)c1=O` [PENTOXIFYLLINE], the Activity in the experiment with J774.A1 [1] is 7.5%; in the experiment on J774.A1 [2], 33.9%.
